Experimental data taken from ChEMBL document CHEMBL1133262, “Studies on the novel anti-staphyloccal compound nematophin” (2000).
In brackets after ≈: the same amount, converted by molar mass. Activity calls are given as the source filed them. The rule behind the calls is not given here.

What was measured:
Staphylococcus aureus [1] = experiment: Minimum inhibitory concentration against methicillin resistant organism Staphylococcus aureus COL; assay type: functional
Staphylococcus aureus [2] = experiment: Minimum inhibitory concentration against methicillin sensitive organism Staphylococcus aureus 853; assay type: functional
Bacillus subtilis = experiment: Minimum inhibitory concentration against Bacillus subtilis; assay type: functional
Staphylococcus aureus [3] = experiment: Activity against methicillin sensitive organism Staphylococcus aureus 853 in presence of serum.; assay type: functional, organism-based

| SMILES | MIC (Staphylococcus aureus [1]) [µg/mL] | MIC (Staphylococcus aureus [2]) [µg/mL] | MIC (Bacillus subtilis) [µg/mL] | MIC (Staphylococcus aureus [3]) |
| --- | --- | --- | --- | --- |
| CCC(C)C(=O)C(=O)NCCc1c(-c2cccnc2)[nH]c2ccccc12 (stereo unspecified) | 4 (≈ 11.4 µM) | 0.5 (≈ 1.43 µM) | > 32 | inactive |
| CCC(C)C(=O)C(=O)NCCc1c(-c2ccc[n+](C)c2)[nH]c2ccccc12.[I-] (stereo unspecified) |  | > 32 | > 32 | inactive |
| O=C1c2ccccc2C(=O)N1CCn1c(-c2ccccc2)nc2ccccc21 |  |  |  | inactive |
| CCC(C)C(=O)C(=O)NCCc1c[nH]c2ccccc12 (stereo unspecified) | 16 (≈ 58.7 µM) | 2 (≈ 7.34 µM) | > 32 | inactive |
| O=C1c2ccccc2C(=O)N1CCc1c[nH]c2ccccc12 |  |  |  | inactive |
| CCC(C)C(=O)C(=O)NCCn1c(-c2ccccc2)nc2ccccc21 (stereo unspecified) | 16 (≈ 45.8 µM) | 8 (≈ 22.9 µM) | > 32 | inactive |
| O=C1c2ccccc2C(=O)N1CCc1c(-c2cccnc2)[nH]c2ccccc12 |  |  |  | inactive |
| O=C1c2ccccc2C(=O)N1CCc1c(-c2ccccc2)[nH]c2ccccc12 |  |  |  | inactive |
| O=[N+]([O-])c1ccccc1F |  |  |  | inactive |
| O=C1c2ccccc2C(=O)N1CCn1cnc2ccccc21 |  |  |  | inactive |
| CCC(C)C(=O)C(=O)NCCn1cnc2ccccc21 (stereo unspecified) |  | > 32 | > 32 | inactive |
| CCC(C)C(=O)C(=O)NCCc1c(-c2ccccc2)[nH]c2ccccc12 (stereo unspecified) | 0.06 (≈ 0.172 µM) | < 0.03 | 8 (≈ 23 µM) | inactive |
| CCC(C)C(=O)C(=O)NCCn1c(-c2ccccc2)[n+](C)c2ccccc21.[I-] (stereo unspecified) |  | > 32 | > 32 | inactive |
| CCC(C)C(=O)C(=O)NCCc1cn(Cc2ccccc2)c2ccccc12 (stereo unspecified) | > 32 | 2 (≈ 5.52 µM) | > 32 | inactive |
| CCC(C)C(=O)C(=O)NCCn1c[n+](C)c2ccccc21.[I-] (stereo unspecified) |  | > 32 | > 32 | inactive |
| CCC(C)C(=O)C(=O)NCCc1c(-c2ccc[n+](CC(N)=O)c2)[nH]c2ccccc12.[I-] (stereo unspecified) |  | > 32 | > 32 | inactive |
